Experimental data taken from article PMC11284340 (FASEB journal : official publication of the Federation of …, 2024).
Each block holds one molecule with its values, some of them ahead of it.

Columns and labels:
[1] = biological target: T1, Drosophila insulin receptor kinase domain (D-IRK) (Drosophila melanogaster, UniProt P09208); assay: [γ-32P]-ATP phosphocellulose kinase assay; type: biochemical; details: read-out: % inhibition at 10 μM
T1 sequence (P09208 1358-1672): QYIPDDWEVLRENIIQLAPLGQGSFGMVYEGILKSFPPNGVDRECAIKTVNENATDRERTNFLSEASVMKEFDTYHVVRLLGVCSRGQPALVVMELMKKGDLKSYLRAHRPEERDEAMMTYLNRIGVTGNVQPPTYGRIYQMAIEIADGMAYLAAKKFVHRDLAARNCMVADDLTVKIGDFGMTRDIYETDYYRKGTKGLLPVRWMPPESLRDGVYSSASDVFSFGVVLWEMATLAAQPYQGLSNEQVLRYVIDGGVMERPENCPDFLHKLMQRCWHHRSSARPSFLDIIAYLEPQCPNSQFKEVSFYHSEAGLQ

[2] = biological target: T1, Drosophila insulin receptor kinase domain (D-IRK); assay: [γ-32P]-ATP phosphocellulose kinase assay at […]; type: biochemical; details: read-out: % inhibition at 10 μM
[3] = substrate: Nc1ncnc2c1ncn2[C@@H]1O[C@H](COP(=O)(O)OP(=O)(O)OP(=O)(O)O)[C@@H](O)[C@H]1O; assay: continuous spectrophotometric coupled assay, Km; type: biochemical, Drosophila melanogaster; details: Mg2+ ATP-binding site

Molecule: CN[C@@H]1C[C@H]2O[C@@](C)([C@@H]1OC)n1c3ccccc3c3c4c(c5c6ccccc6n2c5c31)C(=O)NC4 [Staurosporine]
inhibition at 10 µM [1]: 98%

inhibition at 10 µM [2]: ~70%
Molecule: COc1cc2c(Nc3ccc(Br)cc3F)ncnc2cc1OCC1CCN(C)CC1 [Vandetanib]

B1: Drosophila insulin receptor kinase domain (D-IRK) (Drosophila melanogaster) (protein)
chain: QYIPDDWEVLRENIIQLAPLGQGSFGMVYEGILKSFPPNGVDRECAIKTVNENATDRERTNFLSEASVMKEFDTYHVVRLLGVCSRGQPALVVMELMKKGDLKSYLRAHRPEERDEAMMTYLNRIGVTGNVQPPTYGRIYQMAIEIADGMAYLAAKKFVHRDLAARNCMVADDLTVKIGDFGMTRDIYETDYYRKGTKGLLPVRWMPPESLRDGVYSSASDVFSFGVVLWEMATLAAQPYQGLSNEQVLRYVIDGGVMERPENCPDFLHKLMQRCWHHRSSARPSFLDIIAYLEPQCPNSQFKEVSFYHSEAGLQ
Km [3]: 1.35 ± 0.17 mM
